Assay results reported in US20250163038A1, “CBL-B MODULATORS AND USES THEREOF” (Nimbus Clio, Inc., priority 2021, published 2025).
Like-named read-outs stand apart in the source and are kept apart here.

Assays:
[1] = biological target: Recombinant human Cbl-b (aa 36-427) (Homo sapiens, UniProt Q13191); assay: Cbl-b Biochemical Assay (TR-FRET)
[2] = biological target: T1, Recombinant human c-Cbl (aa 47-435) (Homo sapiens, UniProt P22681); assay: c-Cbl Biochemical Assay (TR-FRET)
T1 sequence (P22681 47-435): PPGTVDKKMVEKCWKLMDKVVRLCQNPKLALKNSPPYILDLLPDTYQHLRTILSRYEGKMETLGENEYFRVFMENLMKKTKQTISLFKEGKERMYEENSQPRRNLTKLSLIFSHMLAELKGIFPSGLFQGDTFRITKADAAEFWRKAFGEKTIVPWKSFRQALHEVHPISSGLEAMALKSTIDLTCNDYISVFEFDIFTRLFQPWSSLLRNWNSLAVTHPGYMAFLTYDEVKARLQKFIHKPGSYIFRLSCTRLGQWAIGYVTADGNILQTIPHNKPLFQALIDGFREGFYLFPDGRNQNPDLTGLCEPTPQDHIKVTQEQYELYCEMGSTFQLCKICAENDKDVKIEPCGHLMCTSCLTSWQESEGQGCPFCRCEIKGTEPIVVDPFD

[3] = system: Jurkat (clone E6-1) cells with NFAT luciferase reporter; assay: Jurkat reporter assay (NFAT Luciferase); assay type: cell-based; conditions: Homo sapiens; Jurkat NFAT luciferase reporter cells, anti-CD3 stimulation, 6 hr; read-out: Jurkat NFAT EC50
[4] = hc-Cbl Biochemical Assay (TR-FRET), read-out: TR-FRET hcCbl IC50

Recombinant human Cbl-b (aa 36-427), sequence (Q13191 36-427): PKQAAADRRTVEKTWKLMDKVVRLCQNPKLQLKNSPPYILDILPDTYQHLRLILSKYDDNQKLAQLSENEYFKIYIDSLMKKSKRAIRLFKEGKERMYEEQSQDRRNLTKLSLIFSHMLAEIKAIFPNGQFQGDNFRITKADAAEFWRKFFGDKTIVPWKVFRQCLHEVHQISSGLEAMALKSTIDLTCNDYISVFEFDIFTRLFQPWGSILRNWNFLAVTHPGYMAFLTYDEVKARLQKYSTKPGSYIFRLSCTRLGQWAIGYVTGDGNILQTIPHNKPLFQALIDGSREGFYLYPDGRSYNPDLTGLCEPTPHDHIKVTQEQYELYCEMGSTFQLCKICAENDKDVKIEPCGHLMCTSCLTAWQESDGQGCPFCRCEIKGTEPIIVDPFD

| SMILES | IC50 ([1]; read-out: TR-FRET hCbl-b IC50) [nM] | IC50 [2, 4] [nM] | EC50 [3] [nM] | IC50 [1] [nM] | IC50 [2] [nM] |
| --- | --- | --- | --- | --- | --- |
| Cn1cnnc1-c1cc(F)ccc1-c1cc(-c2nc3cc(CN[C@@H]4CCC[C@]4(C)O)cc(F)c3o2)nc(C2CC2)c1 [AFL-2, (1S,2R)-2-(((2-(6-Cyclopropyl-4-(4-fluoro-2-(4-methyl-4H-1,2,4-triazol-3-yl)phenyl)pyridin-2-yl)-7-fluorobenzo[d]oxazol-5-yl)methyl)amino)-1-methylcyclopentan-1-ol] |  |  | 1000 to 10000 | < 200 | 200 to 1000 |
| Cn1cnnc1-c1cc(F)ccc1-c1cc(-c2nc3cc(CN[C@@H]4CCC[C@@]4(C)O)cc(F)c3o2)nc(C2CC2)c1 [AFM-1, (1R,2R)-2-(((2-(6-Cyclopropyl-4-(4-fluoro-2-(4-methyl-4H-1,2,4-triazol-3-yl)phenyl)pyridin-2-yl)-7-fluorobenzo[d]oxazol-5-yl)methyl)amino)-1-methylcyclopentan-1-ol] |  |  | 1000 to 10000 | < 200 | 200 to 1000 |
| Cn1cnnc1-c1cc(F)ccc1-c1cc(-c2nc3cc(CN4CC(F)C4)cc(F)c3o2)nc(C2CC2)c1 [AFP-3, 2-{6-Cyclopropyl-4-[4-fluoro-2-(4-methyl-1,2,4-triazol-3-yl)phenyl]pyridin-2-yl}-7-fluoro-5-[(3-fluoroazetidin-1-yl)methyl]-1,3-benzoxazole] | 1000 to 10000 | 200 to 1000 | 1000 to 10000 |  |  |
| COC(=O)c1cc2nc(-c3cc(-c4ccc(F)cc4-c4nncn4C)cc(C4CC4)n3)oc2c(F)c1F [AFW-1, Methyl 2-{6-cyclopropyl-4-[4-fluoro-2-(4-methyl-1,2,4-triazol-3-yl)phenyl]pyridin-2-yl}-6,7-difluoro-1,3-benzoxazole-5-carboxylate] | 1000 to 10000 | 1000 to 10000 | 1000 to 10000 |  |  |
| Cn1cnnc1-c1cc(F)ccc1-c1cc(-c2nc3cc(CO)c(F)c(F)c3o2)nc(C2CC2)c1 [AFX-1, (2-{6-cyclopropyl-4-[4-fluoro-2-(4-methyl-1,2,4-triazol-3-yl)phenyl]pyridin-2-yl}-6,7-difluoro-1,3-benzoxazol-5-yl)methanol] | 200 to 1000 | 200 to 1000 | 200 to 1000 |  |  |
| CO[C@H](C)[C@@H](C)NCc1cc(C)c2oc(-c3cc(-c4ccc(F)cc4-c4nncn4C)cc(C4CC4)n3)nc2c1 [AFZ-2, [(2-{6-Cyclopropyl-4-[4-fluoro-2-(4-methyl-1,2,4-triazol-3-yl)phenyl]pyridin-2-yl}-7-methyl-1,3-benzoxazol-5-yl)methyl][(2R,3R)-3-methoxybutan-2-yl]amine] | 200 to 1000 | 200 to 1000 | 200 to 1000 |  |  |
| CO[C@@H](C)[C@H](C)NCc1cc(C)c2oc(-c3cc(-c4ccc(F)cc4-c4nncn4C)cc(C4CC4)n3)nc2c1 [AGC-2, [(2-{6-Cyclopropyl-4-[4-fluoro-2-(4-methyl-1,2,4-triazol-3-yl)phenyl]pyridin-2-yl}-7-methyl-1,3-benzoxazol-5-yl)methyl][(2S,3S)-3-methoxybutan-2-yl]amine] | < 200 | < 200 | < 200 |  |  |
| Cn1cnnc1-c1cc(F)ccc1-c1cc(-c2nc3cc(CNC(C)(C)C4CCC4)c(F)c(F)c3o2)nc(C2CC2)c1 [AGD-1, (2-Cyclobutylpropan-2-yl)[(2-{6-cyclopropyl-4-[4-fluoro-2-(4-methyl-1,2,4-triazol-3-yl)phenyl]pyridin-2-yl}-6,7-difluoro-1,3-benzoxazol-5-yl)methyl]amine] | < 200 | 200 to 1000 | 1000 to 10000 |  |  |
| Cn1cnnc1-c1cc(F)ccc1-c1cc(-c2nc3cc(CNCC4CCC4)c(F)c(F)c3o2)nc(C2CC2)c1 [AGE-1, 1-Cyclobutyl-N-((2-(6-cyclopropyl-4-(4-fluoro-2-(4-methyl-4H-1,2,4-triazol-3-yl)phenyl)pyridin-2-yl)-6,7-difluorobenzo[d]oxazol-5-yl)methyl)methanamine] | < 200 | < 200 | < 200 |  |  |

Second part, led by results:

| IC50 ([1]; read-out: TR-FRET hCbl-b IC50) [nM] | IC50 [2, 4] [nM] | EC50 [3] [nM] | SMILES | IC50 [1] [nM] | IC50 [2] [nM] |
| --- | --- | --- | --- | --- | --- |
| < 200 | < 200 | 200 to 1000 | Cn1cnnc1-c1cc(F)ccc1-c1cc(-c2nc3cc(CNCC4(F)CCC4)cc(F)c3o2)nc(C2CC2)c1 [AFJ-1, [(2-{6-Cyclopropyl-4-[4-fluoro-2-(4-methyl-1,2,4-triazol-3-yl)phenyl]pyridin-2-yl}-7-fluoro-1,3-benzoxazol-5-yl)methyl][(1-fluorocyclobutyl)methyl]amine] |  |  |
| < 200 | < 200 | 200 to 1000 | CN(Cc1cc(F)c2oc(-c3cc(-c4ccc(F)cc4-c4nncn4C)cc(C4CC4)n3)nc2c1)[C@@H]1CCC[C@@H]1O [AFK-1, (1S,2R)-2-{[(2-{6-Cyclopropyl-4-[4-fluoro-2-(4-methyl-1,2,4-triazol-3-yl)phenyl]pyridin-2-yl}-7-fluoro-1,3-benzoxazol-5-yl)methyl](methyl)amino}cyclopentan-1-ol] |  |  |
| < 200 | < 200 | 200 to 1000 | CO[C@H](C)CNCc1cc(F)c2oc(-c3cc(-c4ccc(F)cc4-c4nncn4C)cc(C4CC4)n3)nc2c1 [AFN-2, [(2-{6-Cyclopropyl-4-[4-fluoro-2-(4-methyl-1,2,4-triazol-3-yl)phenyl]pyridin-2-yl}-7-fluoro-1,3-benzoxazol-5-yl)methyl][(2R)-2-methoxypropyl]amine] |  |  |
| < 200 | < 200 | 200 to 1000 | CO[C@@H](C)CNCc1cc(F)c2oc(-c3cc(-c4ccc(F)cc4-c4nncn4C)cc(C4CC4)n3)nc2c1 [AFO-2, [(2-{6-Cyclopropyl-4-[4-fluoro-2-(4-methyl-1,2,4-triazol-3-yl)phenyl]pyridin-2-yl}-7-fluoro-1,3-benzoxazol-5-yl)methyl][(2S)-2-methoxypropyl]amine] |  |  |
| < 200 | < 200 | 200 to 1000 | COC1(CN[C@@H](C)c2cc(F)c3oc(-c4cc(-c5ccc(F)cc5-c5nncn5C)cc(C5CC5)n4)nc3c2)CCC1 [AFS-2, [(1S)-1-(2-{6-Cyclopropyl-4-[4-fluoro-2-(4-methyl-1,2,4-triazol-3-yl)phenyl]pyridin-2-yl}-7-fluoro-1,3-benzoxazol-5-yl)ethyl][(1-methoxycyclobutyl)methyl]amine] |  |  |
| < 200 | 200 to 1000 | 1000 to 10000 | COC1(CN[C@H](C)c2cc(F)c3oc(-c4cc(-c5ccc(F)cc5-c5nncn5C)cc(C5CC5)n4)nc3c2)CCC1 [AFT-1, [(1R)-1-(2-{6-Cyclopropyl-4-[4-fluoro-2-(4-methyl-1,2,4-triazol-3-yl)phenyl]pyridin-2-yl}-7-fluoro-1,3-benzoxazol-5-yl)ethyl][(1-methoxycyclobutyl)methyl]amine] |  |  |
| < 200 | < 200 | < 200 | COC[C@H](C)NCc1cc(F)c2oc(-c3cc(-c4ccc(F)cc4-c4nncn4C)cc(C4CC4)n3)nc2c1 [AFU-1, [(2-{6-Cyclopropyl-4-[4-fluoro-2-(4-methyl-1,2,4-triazol-3-yl)phenyl]pyridin-2-yl}-7-fluoro-1,3-benzoxazol-5-yl)methyl][(2S)-1-methoxypropan-2-yl]amine] |  |  |
| < 200 | 200 to 1000 | 200 to 1000 | COC[C@@H](C)NCc1cc(F)c2oc(-c3cc(-c4ccc(F)cc4-c4nncn4C)cc(C4CC4)n3)nc2c1 [AFV-1, [(2-{6-Cyclopropyl-4-[4-fluoro-2-(4-methyl-1,2,4-triazol-3-yl)phenyl]pyridin-2-yl}-7-fluoro-1,3-benzoxazol-5-yl)methyl][(2R)-1-methoxypropan-2-yl]amine] |  |  |
| < 200 | < 200 | < 200 | Cn1cnnc1-c1cc(F)ccc1-c1cc(-c2nc3cc(CN[C@@H]4CCC[C@@H]4O)c(F)c(F)c3o2)nc(C2CC2)c1 [AFY-2, (1S,2R)-2-{[(2-{6-Cyclopropyl-4-[4-fluoro-2-(4-methyl-1,2,4-triazol-3-yl)phenyl]pyridin-2-yl}-6,7-difluoro-1,3-benzoxazol-5-yl)methyl]amino}cyclopentan-1-ol] |  |  |
| < 200 | 1000 to 10000 | 1000 to 10000 | Cn1cnnc1-c1cc(F)ccc1-c1cccc(-c2nc3cc(CN4CCC5(CC4)CC5)cc(C(F)(F)F)c3o2)c1 [AG-2, 5-((6-Azaspiro[2.5]octan-6-yl)methyl)-2-(4′-fluoro-2′-(4-methyl-4H-1,2,4-triazol-3-yl)-[1,1′-biphenyl]-3-yl)-7-(trifluoromethyl)benzo[d]oxazole] |  |  |
| < 200 | < 200 | < 200 | Cn1cnnc1-c1cc(F)ccc1-c1cc(-c2nc3cc(CNCC4(O)CCC4)c(F)c(F)c3o2)nc(C2CC2)c1 [AGA-1, 1-({[(2-{6-Cyclopropyl-4-[4-fluoro-2-(4-methyl-1,2,4-triazol-3-yl)phenyl]pyridin-2-yl}-6,7-difluoro-1,3-benzoxazol-5-yl)methyl]amino}methyl)cyclobutan-1-ol] |  |  |
| < 200 | < 200 | < 200 | COCCNCc1cc2nc(-c3cc(-c4ccc(F)cc4-c4nncn4C)cc(C4CC4)n3)oc2c(F)c1F [AGB-1, [(2-{6-Cyclopropyl-4-[4-fluoro-2-(4-methyl-1,2,4-triazol-3-yl)phenyl]pyridin-2-yl}-6,7-difluoro-1,3-benzoxazol-5-yl)methyl](2-methoxyethyl)amine] |  |  |
